Laboratory results as given in patent publication US20230078764A1 (Yumanity Therapeutics, Inc., priority 2019, published 2023).
Like-named read-outs stand apart in the source and are kept apart here.

Experiments:
human SCD5 = biological target: T1, human SCD5 (Homo sapiens, UniProt Q86SK9); assay: Growth inhibition of yeast strain expressing human SCD5 as sole desaturase (OLE1 deleted), OD600 readout; format: cell-based
T1 construct: expressed in transfected cells; host or cells: yeast strain with OLE1 deleted, plasmid-borne human SCD5 (selected in SD-Ura)
T1 sequence (Q86SK9 1-330): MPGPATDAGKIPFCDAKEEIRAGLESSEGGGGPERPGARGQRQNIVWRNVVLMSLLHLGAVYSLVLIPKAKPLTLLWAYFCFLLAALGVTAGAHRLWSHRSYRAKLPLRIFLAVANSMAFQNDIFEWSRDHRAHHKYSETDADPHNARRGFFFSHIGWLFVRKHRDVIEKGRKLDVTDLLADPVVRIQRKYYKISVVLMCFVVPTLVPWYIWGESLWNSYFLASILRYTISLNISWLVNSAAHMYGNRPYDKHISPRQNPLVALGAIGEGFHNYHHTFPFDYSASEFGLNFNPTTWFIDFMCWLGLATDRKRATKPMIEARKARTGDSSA

human SCD1 = biological target: T2, human SCD1 (Homo sapiens, UniProt O00767); assay: Growth inhibition of yeast strain expressing human SCD1 as sole desaturase (OLE1 deleted), OD600 readout; format: cell-based
T2 construct: expressed in transfected cells; host or cells: yeast strain with OLE1 deleted, plasmid-borne human SCD1 (selected in SD-Ura)
T2 sequence (O00767 1-359): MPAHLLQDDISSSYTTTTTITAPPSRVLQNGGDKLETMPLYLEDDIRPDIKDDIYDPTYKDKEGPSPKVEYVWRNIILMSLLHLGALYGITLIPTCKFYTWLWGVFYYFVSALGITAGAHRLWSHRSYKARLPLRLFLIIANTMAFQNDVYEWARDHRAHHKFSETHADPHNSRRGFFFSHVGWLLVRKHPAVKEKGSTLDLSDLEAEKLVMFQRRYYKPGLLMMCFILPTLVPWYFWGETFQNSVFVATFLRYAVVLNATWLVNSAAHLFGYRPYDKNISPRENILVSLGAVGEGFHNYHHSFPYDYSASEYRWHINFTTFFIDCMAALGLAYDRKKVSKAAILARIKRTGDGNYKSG

[1] = yeast strain expressing human SCD5 as sole desaturase, growth (OD600) after 40 h at 30° C., read-out: SCD5 IC50
[2] = yeast strain expressing human SCD1 as sole desaturase, growth (OD600) after 40 h at 30° C., read-out: SCD1 IC50

Row | IC50 (human SCD5; [1]) [µM] | IC50 (human SCD1; [2]) [µM] | Structure (SMILES) | IC50 (human SCD5; SCD5 IC50) [µM] | IC50 (human SCD1; SCD1 IC50) [µM]
1 | 0.9 | 31 | Cn1nc(C(=O)Nc2ccc(COc3ccc(F)c(F)c3)cn2)ccc1=O [Compound 664] |  | 
2 | > 45 | > 45 | Cn1cc(-c2ccc(NC(=O)Cc3cccc(F)c3)nc2)ccc1=O [Compound 457] |  | 
3 | 0.16 | > 45 | Cc1ncc(C(=O)Nc2ccc(Cc3cccc(F)c3)cn2)cn1 [Compound 141, N-(5-(3-fluorobenzyl)pyridin-2-yl)-2-methylpyrimidine-5-carboxamide] |  | 
4 | 0.01 | 0.01 | O=C(Nc1ccc(Cc2cccc(F)c2)cn1)c1ccc(CO)nc1 [Compound 119, N-(5-(3-fluorobenzyl)pyridin-2-yl)-6-(hydroxymethyl)nicotinamide] |  | 
5 | 2.52 | 3.95 | Cn1nc(C(=O)Nc2nnc(Cc3cccc(F)c3)s2)ccc1=O [Compound 345] |  | 
6 | 0.23 | 3.5 | CN1CC=C(C(=O)Nc2ccc(Cc3cccc(F)c3)cn2)NC1=O [Compound 480] |  | 
7 | 0.01 | 0.01 | O=C(Nc1ccc(CO)nc1)c1ccc(Cc2cccc(F)c2)cn1 [Compound 125, 5-(3-Fluorobenzyl)-N-(6-(hydroxymethyl)pyridin-3-yl)picolinamide] |  | 
8 | > 45 | > 45 | CN1C(=O)OC[C@H]1C(=O)Nc1ccc(Cc2cccc(F)c2)cn1 [Compound 458] |  | 
9 | 0.02 | 1.08 | CCn1ccc(C(=O)Nc2ccc(Cc3cccc(F)c3)cn2)n1 [Compound 101, 1-ethyl-N-(5-(3-fluorobenzyl)pyridin-2-yl)-1H-pyrazole-3-carboxamide] |  | 
10 | 0.04 | 0.12 | Cn1cc(C(=O)Nc2ccc(Cc3cccc(F)c3)cn2)cn1 [Compound 356] |  | 
11 | 0.78 | 14.1 | COc1cccc(Cc2ccc(NC(=O)c3ccc(=O)n(C)n3)nc2)c1 [Example 44, N-(5-(3-methoxybenzyl)pyridin-2-yl)-1-methyl-6-oxo-1,6-dihydropyridazine-3-carboxamide] |  | 
12 | 0.03 | 1.82 | Cn1nc(NC(=O)c2ccc(Cc3ccc(F)c(F)c3)cn2)ccc1=O [Compound 312] |  | 
13 | 0.96 | 0.01 | O=C(Nc1ccc(Cc2cccc(F)c2)cn1)c1ncc(CO)cn1 [Compound 544] |  | 
14 | > 45 | 1.24 | CS(=O)(=O)c1cccc(C(=O)Nc2ccc(Cc3cccc(F)c3)cn2)c1 [Compound 391] |  | 
15 | 0.027 | 0.12 | O=C(Nc1ccc(Cc2cccc(F)c2)cn1)c1cncc(CO)c1 [Compound 481] |  | 
16 | 0.12 | 0.44 | CCn1nc(C(=O)Nc2ccc(Cc3cccc(Cl)c3)cn2)ccc1=O [Compound 67, N-(5-(3-chlorobenzyl)pyridin-2-yl)-1-ethyl-6-oxo-1,6-dihydropyridazine-3-carboxamide] |  | 
17 | 2.2 | > 45 | O=C(Nc1ccc(Cc2cccc(F)c2)cn1)c1ncc(Br)cn1 [Compound 490] |  | 
18 | 1.43 | 9.41 | O=C(Nc1ccc(Cc2cccc(F)c2)cn1)c1ccn(C2CC2)n1 [Compound 285] |  | 

More lines, now with the values behind:

Row | Structure (SMILES) | IC50 (human SCD5; [1]) [µM] | IC50 (human SCD1; [2]) [µM] | IC50 (human SCD5; SCD5 IC50) [µM] | IC50 (human SCD1; SCD1 IC50) [µM]
19 | O=C(Nc1ccc(Nc2cccc(Cl)c2)cn1)c1ccc(=O)n(C2CC2)n1 [Compound 303] | 0.97 | 4.18 |  | 
20 | CN1N=C(C(=O)Nc2ccc(Cc3cc(C(F)(F)F)ccn3)cn2)CCC1=O [Compound 14, 1-methyl-6-oxo-N-(5-((4-(trifluoromethyl)pyridin-2-yl)methyl)pyridin-2-yl)-1,4,5,6-tetrahydropyridazine-3-carboxamide] | 3.74 | 17.3 |  | 
21 | Cn1cc(C(=O)N[C@H]2CC[C@@H](Cc3cccc(Cl)c3)CC2)ccc1=O [Compound 465] | > 45 | > 45 |  | 
22 | CNC(=O)c1ccnc(C(=O)Nc2ccc(Oc3ccccc3Cl)cn2)c1 [Compound 675] | 12 | > 45 |  | 
23 | CN1N=C(C(=O)Nc2nc(Cl)c(Cc3cccc(F)c3)s2)CCC1=O [Compound 218, N-(4-chloro-5-(3-fluorobenzyl)thiazol-2-yl)-1-methyl-6-oxo-1,4,5,6-tetrahydropyridazine-3-carboxamide] | 0.36 | 2.73 |  | 
24 | O=C(Nc1ccc(Cc2cc(F)cc(F)c2)cn1)c1ncc(CO)cn1 [Compound 559] | 0.01 | 0.01 |  | 
25 | O=C(Nc1ccc(Cc2cccc(Cl)c2)cn1)c1cncc(CO)c1 [Compound 483] | 0.017 | 0.075 |  | 
26 | CC(O)c1ccc(C(=O)Nc2ccc(Cc3cc(F)cc(F)c3)cn2)cn1 (stereo not drawn) [Compound 513] | 0.17 | 0.77 |  | 
27 | CN1N=C(C(=O)Nc2ncc(Cc3cccc(F)c3)nn2)CCC1=O [Compound 245] | > 45 | > 45 |  | 
28 | Cc1cc(C(=O)Nc2ccc(Cc3cc(F)cc(F)c3)cn2)cnc1C#N [Compound 616] | 0.01 | 0.522 |  | 
29 | N#Cc1ccc(C(=O)Nc2ccc(Cc3cc(F)cc(C#N)c3)cn2)nc1 [Compound 536] | 0.11 | 1 |  | 
30 | COc1cc(F)cc(Cc2ccc(NC(=O)c3ccc(=O)n(C)c3)nc2)c1 [Compound 52, N-(5-(3-fluoro-5-methoxybenzyl)pyridin-2-yl)-1-methyl-6-oxo-1,6-dihydropyridine-3-carboxamide] |  |  | 0.13 | 8.21
31 | CN1N=C(C(=O)N(C)c2ncc(Cc3cccc(F)c3)s2)CCC1=O [Compound 221] | > 45 | > 45 |  | 
32 | N#Cc1cc(F)cc(Cc2ccc(NC(=O)c3cnc(C#N)cn3)nc2)c1 [Compound 655] | 0.035 | 0.36 |  | 
33 | Cn1cc(C(=O)Nc2ccc(Cc3cc(F)cc(Cl)c3)cn2)cn1 [Compound 316] | 0.01 | 0.01 |  | 
34 | O=C(Nc1ncc(Cc2cccc(F)c2)s1)c1ccc(=O)n(CCF)n1 [Compound 226, N-(5-(3-fluorobenzyl)thiazol-2-yl)-1-(2-fluoroethyl)-6-oxo-1,6-dihydropyridazine-3-carboxamide] | 5.71 | 7.27 |  | 
35 | Cn1nc(C(=O)Nc2ccc(Oc3cc(F)cc(Cl)c3)cn2)ccc1=O [Compound 586] | 1.3 | > 45 |  | 

Row | Structure (SMILES) | IC50 (human SCD5; [1]) [µM] | IC50 (human SCD1; [2]) [µM] | IC50 (human SCD5; SCD5 IC50) [µM] | IC50 (human SCD1; SCD1 IC50) [µM]
36 | Cn1nc(C(=O)Nc2cc(Cc3ccc(Cl)cc3)ccn2)ccc1=O [Compound 338] | 16.3 | > 45 |  | 
37 | CN1N=C(C(=O)Nc2ccc(Cc3cccc(Br)c3)nn2)CCC1=O [Compound 191, N-(6-(3-bromobenzyl)pyridazin-3-yl)-1-methyl-6-oxo-1,4,5,6-tetrahydropyridazine-3-carboxamide] | 2.68 | > 45 |  | 
38 | O=C(Nc1ccc(Cc2cc(F)cc(F)c2)cn1)c1ccnnc1 [Compound 622] | 0.016 | 0.023 |  | 
39 | COc1cc(C(=O)Nc2ccc(Cc3cc(F)cc(F)c3)cn2)nn(C)c1=O [Compound 596] | 0.026 | 1.08 |  | 
40 | Cn1nc(C(=O)Nc2cncc(Cc3cccc(Cl)c3)c2)ccc1=O [Compound 426] | > 45 | > 45 |  | 
41 | N#Cc1cc(F)cc(Cc2ccc(NC(=O)c3cnc(Cl)cn3)nc2)c1 [Compound 646] | 0.14 | > 45 |  | 
42 | Cn1cc(C(=O)Nc2nnc(Cc3ccc(F)c(Cl)c3)s2)ccc1=O [Compound 350] | 5.42 | 2.6 |  | 
43 | CN1N=C(C(=O)Nc2cc(Cc3cccc(Cl)c3)cnc2N)CCC1=O [Compound 471] | > 45 | > 45 |  | 
44 | Cc1cc(NC(=O)C2=NN(C)C(=O)CC2)ncc1Cc1cccc(Cl)c1 [Compound 123, N-(5-(3-chlorobenzyl)-4-methylpyridin-2-yl)-1-methyl-6-oxo-1,4,5,6-tetrahydropyridazine-3-carboxamide] | 8.94 | > 45 |  | 
45 | O=C(Nc1ccc(C=C2CCOCC2)cn1)c1ccc(CO)nc1 [Compound 637] | 8.1 | 12 |  | 
46 | CN1N=C(C(=O)Nc2cnn(Cc3cccc(Cl)c3)c2)CCC1=O [Compound 405] | > 45 | > 45 |  | 
47 | C[C@@H](O)c1ccc(C(=O)Nc2ccc(Cc3cccc(Cl)c3)cn2)cn1 [Compound 520] | 0.09 | 0.36 |  | 
48 | N#Cc1ccc(C(=O)Nc2ccc(Cc3cc(F)ccc3F)cn2)cn1 [Compound 629] | 0.25 | 3.3 |  | 
49 | N#Cc1cc(F)cc(Cc2ccc(NC(=O)c3ccnnc3)nc2)c1 [Compound 656] | 0.11 | 0.22 |  | 
50 | Cn1nc(C(=O)Nc2ccc(Cc3cncc(Cl)c3)cn2)ccc1=O [Compound 275] | 3.02 | > 45 |  | 
51 | Cn1nc(C(=O)Nc2ccc(CC3CCCCC3)cn2)ccc1=O [Example 38, N-(5-(cyclohexylmethyl)pyridin-2-yl)-1-methyl-6-oxo-1,6-dihydropyridazine-3-carboxamide] | 0.89 | 15.7 |  | 
